Laboratory results: patent publication US12144795B2, “Cannabidiol compositions having modified cannabinoid profiles” (priority 2018, dated 2024)
Values after ≈ are worked out from the molar mass of the structure shown.

Columns and labels:
Assay type in all cases: physicochemical
[1] = Quantitative thermodynamic solubility determination at ambient temperature, evaporated solids analyzed by XRPD; settings: for solubility: thermodynamic from solid, ambient temperature
Method: A quantitative thermodynamic solubility determination was performed on crude cannabidiol obtained via Protocol 2 to aid in the selection of solvents for crystallization experiments. The clear solutions obtained from each solubility determination experiment were evaporated and the obtained solids were analyzed by XRPD.
When the material precipitated as a solid, it was classified as Form A. However, in 11 experiments, the material obtained after evaporation was oil-like in appearance and could not be analyzed by XRPD. When no XRPD record was generated, the field was defined as “Not Applicable” (N/A).

[2] = HPLC method quantifying low levels of D9-THC in stored cannabidiol samples
Method: An analytical method using HPLC was developed to determine low levels of delta-9-tetrahydrocannabinol in cannabidiol samples. A Waters XBridge C18 3.5 μm, 3.0×150 mm column was employed and operated at a temperature of 30° C., UV wavelength of 225 nm, and injection size of 20 μL. Mobile Phase A was 0.02% (v/v) acetic acid in H2O, while mobile phase B was 0.02% (v/v) acetic acid in acetonitrile (ACN).
An aliquot of 0.5 mL of a D9-THC reference standard (Cerilliant, 1.0 mg/mL MeOH solution) was diluted in a 500-mL volumetric flask using sample diluent (70/30 Acetonitrile/H2O, v/v). The D9-THC concentration was 0.001 mg/mL in the standard stock solution, which corresponded with 200 ppm of D9-THC as compared to the CBD sample solution (nominal CBD concentration was 5.0 mg/mL).
An Aliquot of 5 mL of THC Stock Standard Solution was diluted in a 100-mL volumetric flask using the sample diluent. The D9-THC concentration was 0.00005 mg/mL in the working standard solution, corresponding with 10 ppm of D9-THC as compared to the CBD sample solution.
About 50 mg of cannabidiol sample was weighed into a 10-mL volumetric flask. The volumetric flask was diluted to volume using sample diluent and mixed well.
A minimum of 6 working standard solutions were injected prior to the sample set. Furthermore, a maximum of 6 injections of CBD sample were injected between bracketing working standard solutions.
The amount of THC in each sample was calculated using the following
For reference, each chromatogram in FIG. 6A through FIG. 6F is shown against a 10 ppm THC working standard. For samples 1, 2, and 3, roughly 50.28 mg, 50.77 mg, and 55.60 mg material was used.

[3] = Particle size distribution (Mastersizer 2000 laser diffraction, Morphologi G3)
From the text: A Mastersizer 2000 was used to analyze the particle size distribution in cannabidiol samples. This method involved laser diffraction to measure the particle size distribution by the volume standard. Roughly 1 g of each sample was weighed and transferred along the middle of the sample tray. The sample feed gates were 6 mm-8 mm. The instrument software parameters were set to a dispersive air pressure of 3 bar, vibration feed rate of 60%, refractive index of 1.5295, absorption index of 0.01, and size range from 0.020 μm to 2000.000 μm. FIG. 8A-FIG. 8R show the result analysis report for each sample measured as well as their respective particle size distribution graph. Malvern Pananalytical's Morphologi G3 Analyzer was used in another series of experiments to examine sample volume size distribution.

[4] = after storage at −16° C. for two years
[5] = after stored for 23 days at 55-60° C.

Q: With C=C(C)[C@@H]1CCC(C)=C[C@H]1c1c(O)cc(CCCCC)cc1O [crude cannabidiol, cannabidiol] as the compound, how does the solubility ([1]; organic solvent or mixture, 1,2-Dimethoxyethane) read?
A: Its solubility is > 100 mg/mL.

Q: And the solubility ([1]; organic solvent or mixture, 1-Propanol)?
A: Its solubility is > 100 mg/mL.

Q: And the solubility ([1]; organic solvent or mixture, 1.4-Dioxane)?
A: Its solubility is > 100 mg/mL.

Q: What about the solubility ([1]; organic solvent or mixture, 2-Butanone) of the same compound?
A: The solubility was > 100 mg/mL.

Q: What about the solubility ([1]; organic solvent or mixture, 2-propanol) of the same compound?
A: The solubility was > 100 mg/mL.

Q: And the solubility ([1]; organic solvent or mixture, Acetone)?
A: Its solubility is > 100 mg/mL.

Q: What about the solubility ([1]; organic solvent or mixture, Acetonitrile) of the same compound?
A: Its solubility is > 100 mg/mL.

Q: What about the solubility ([1]; organic solvent or mixture, Anisole) of the same compound?
A: Its solubility is > 100 mg/mL.

Q: What about the solubility ([1]; organic solvent or mixture, Chloroform) of the same compound?
A: Its solubility is > 100 mg/mL.

Q: And the solubility ([1]; organic solvent or mixture, Cumene)?
A: Its solubility is > 100 mg/mL.

Q: What about the solubility ([1]; organic solvent or mixture, Cyclohexane) of the same compound?
A: Its solubility is > 100 mg/mL.

Q: What about the solubility ([1]; organic solvent or mixture, Dichloromethane) of the same compound?
A: The solubility was > 100 mg/mL.

Q: And the solubility ([1]; organic solvent or mixture, Diethyl ether)?
A: Its solubility is > 100 mg/mL.

Q: What about the solubility ([1]; organic solvent or mixture, Ethanol) of the same compound?
A: Its solubility is > 100 mg/mL.

Q: And the solubility ([1]; organic solvent or mixture, Ethyl Acetate)?
A: The solubility was > 100 mg/mL.

Q: And the solubility ([1]; organic solvent or mixture, Ethyl Formate)?
A: Its solubility is > 100 mg/mL.

Q: What about the solubility ([1]; organic solvent or mixture, Heptane) of the same compound?
A: Its solubility is 64.6 mg/mL (≈ 205 mM).

Q: And the solubility ([1]; organic solvent or mixture, Isobutanol)?
A: The solubility was > 100 mg/mL.

Q: What about the solubility ([1]; organic solvent or mixture, Isopropyl acetate) of the same compound?
A: Its solubility is > 100 mg/mL.

Q: And the solubility ([1]; organic solvent or mixture, Methanol)?
A: The solubility was > 100 mg/mL.

Q: And the solubility ([1]; organic solvent or mixture, Tert-Butyl methyl ether)?
A: Its solubility is > 100 mg/mL.

Q: What about the solubility ([1]; organic solvent or mixture, Tetrahydrofuran) of the same compound?
A: Its solubility is > 100 mg/mL.

Q: And the solubility ([1]; organic solvent or mixture, Toluene)?
A: Its solubility is > 100 mg/mL.

Q: And the solubility ([1]; organic solvent or mixture, p-Xylene)?
A: The solubility was > 100 mg/mL.

Q: And the XRPD ([1]; solid after evaporation of 1.4-Dioxane solution)?
A: The XRPD was “Form A”.

Q: And the XRPD ([1]; solid after evaporation of 2-Butanone solution)?
A: Its XRPD is “Form A”.

Q: And the XRPD ([1]; solid after evaporation of Chloroform solution)?
A: Its XRPD is “Form A”.

Q: What about the XRPD ([1]; solid after evaporation of Cyclohexane solution) of the same compound?
A: The XRPD was “Form A”.

Q: And the XRPD ([1]; solid after evaporation of Dichloromethane solution)?
A: Its XRPD is “Form A”.

Q: What about the XRPD ([1]; solid after evaporation of Diethyl ether solution) of the same compound?
A: Its XRPD is “Form A”.

Q: And the XRPD ([1]; solid after evaporation of Ethyl Acetate solution)?
A: The XRPD was “Form A”.

Q: And the XRPD ([1]; solid after evaporation of Ethyl Formate solution)?
A: The XRPD was “Form A”.

Q: What about the XRPD ([1]; solid after evaporation of Heptane solution) of the same compound?
A: Its XRPD is “Form A”.

Q: And the XRPD ([1]; solid after evaporation of Isopropyl acetate solution)?
A: The XRPD was “Form A”.

Q: And the XRPD ([1]; solid after evaporation of Tert-Butyl methyl ether solution)?
A: The XRPD was “Form A”.

Q: What about the XRPD ([1]; solid after evaporation of Tetrahydrofuran solution) of the same compound?
A: The XRPD was “Form A”.

Q: And the XRPD ([1]; solid after evaporation of Toluene solution)?
A: Its XRPD is “Form A”.

Q: And the XRPD ([1]; solid after evaporation of Water solution)?
A: Its XRPD is “Form A”.

Q: And the solubility ([1]; Water)?
A: The solubility was < 0.13 mg/mL.

Q: With C=C(C)[C@@H]1CCC(C)=C[C@H]1c1c(O)cc(CCCCC)cc1O [Sample 5, Cannabidiol] as the compound, how does the “Result (D9-THC in ppm)” value [2, 4] read?
A: Its value is 21.7 ppm.

Q: With C=C(C)[C@@H]1CCC(C)=C[C@H]1c1c(O)cc(CCCCC)cc1O [Sample 4, Cannabidiol] as the compound, how does the “Result (D9-THC in ppm)” value [2, 4] read?
A: Its value is 8.3 ppm.

Q: For C=C(C)[C@@H]1CCC(C)=C[C@H]1c1c(O)cc(CCCCC)cc1O [Sample 2, Cannabidiol], which “Result (D9-THC in ppm)” value [2, 5] is on record?
A: Its value is 5.9 ppm.

Q: What about the “Malvern 2K (dry dispersion) D10” value [3] of the same compound?
A: The value was “D10: 8.0 um”.

Q: What about the “Malvern 2K (dry dispersion) D50” value [3] of the same compound?
A: The value was “D50: 23.9 um”.

Q: What about the “Malvern 2K (dry dispersion) D90” value [3] of the same compound?
A: The value was “D90: 157.5 um”.

Q: For C=C(C)[C@@H]1CCC(C)=C[C@H]1c1c(O)cc(CCCCC)cc1O [Sample 6, Cannabidiol], which “Result (D9-THC in ppm)” value [2, 4] is on record?
A: The value was 7.3 ppm.

Q: With C=C(C)[C@@H]1CCC(C)=C[C@H]1c1c(O)cc(CCCCC)cc1O [Sample 1, Cannabidiol] as the compound, how does the “Result (D9-THC in ppm)” value [2, 5] read?
A: The value was 1.9 ppm.

Q: What about the “Malvern 2K (dry dispersion) D10” value [3] of the same compound?
A: The value was “D10: 7.8 um”.

Q: And the “Malvern 2K (dry dispersion) D50” value [3]?
A: Its value is “D50: 21.8 um”.

Q: And the “Malvern 2K (dry dispersion) D90” value [3]?
A: Its value is “D90: 152.9 um”.

Q: With C=C(C)[C@@H]1CCC(C)=C[C@H]1c1c(O)cc(CCCCC)cc1O [Sample 3, Cannabidiol] as the compound, how does the “Result (D9-THC in ppm)” value ([2]; after storage for one month at room temperature (25° C.)) read?
A: The value was 5.1 ppm.
